Where two headings read alike, the source gives them in different places.
Tests used:
[1] = test system: 3D7-strain P. falciparum asexual parasites; test: P. falciparum asexual growth inhibition assay (Pf GIA); format: cell-based, Plasmodium falciparum; conditions: dose response confirmation; read-out: Pf asexual growth inhibition assays IC50
Method in brief: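 Read-out was lactate dehydrogenase activity measured by absorbance at 650 nm after freezing and thawing, against 50 μM chloroquine and DMSO controls. Before that, asexual 3D7 cultures (0.25% parasitemia, 2% hematocrit) had 72 h dose-response compound exposure at 37°C in 5% CO2/5% O2/90% N2; three independent replicates averaged.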

HepG2 cells = test: HepG2 cytotoxicity assay; conditions: for IC50: read-out: HepG2 cytotoxicity assay IC50, dose response confirmation; for Pb ODA (this manuscript) HepG2 cytoxicity: HepG2 cytotoxicity listed with the Pb ODA data set (this manuscript)
Method in brief: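 Cells at 2,500 per well in MEM with 10% fetal bovine serum and 1% NEAA were exposed to test compounds for 48 h at 37°C, 5% CO2. Viability was read by fluorescence, with percent inhibition calculated against 50 μM doxorubicin (positive) and DMSO (negative) controls.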

[2] = test system: P. berghei ookinete development; conditions: for % inhibition, Replicate A / % inhibition, Replicate B: primary screen at 1 μM
[3] = HepG2 values of the three screens unified
[4] = read-out: Pb ODA IC50, this manuscript
[5] = read-out: Pb Ookinete development assay IC50, dose response confirmation
[6] = unified HepG2 value across the three screens
[7] = read-out: Pb ODA (this manuscript) IC50, P. berghei ookinete development assay, this manuscript

Compound | IC50 [1] | HepG2 cytoxicity (Pb ODA, this manuscript) (HepG2 cells) | Unified cytotox (HepG2 cells; [3]) | IC50 (HepG2 cells) | Is compound selective in assay? Pb ODA active? ([2]; 1: YES, 0: NO) | % inhibition, Replicate A [2] | % inhibition, Replicate B [2] | IC50 [2, 4] | IC50 [2, 5] | Unified cytotox (HepG2 cells; [6]) | Pb ODA (this manuscript) HepG2 cytoxicity (HepG2 cells) | Is compound selective in assay? Pb ODA active? [2] | IC50 [2, 7]
CCN(CC)CCCNc1c2ccccc2nc2ccccc12.Cl [TCMDC-125517] | 50 nM | 18.20 µM | 18.20 µM | 18200 nM | 1 (1: YES) | 20.29% | 90.60% | 1610 nM | 1610 nM |  |  |  | 
Cc1c2ccncc2c(C)c2c1[nH]c1ccccc12 [TCMDC-125546] | 1190 nM |  |  | 15100 nM | 0 (0: NO) | 41.57% | 50.63% | 5270 nM | 5260 nM | 15.14 µM |  |  | 
CCn1cc(C(=O)O)c(=O)c2cc(F)c(N3CCN(S(=O)(=O)c4ccc(N)cc4)CC3)cc21 [TCMDC-125809] | 1690 nM |  |  | 100000 nM | 1 (1: YES) | 58.34% | 60.71% | 980 nM | 978 nM | 100.00 µM |  |  | 
O=C(NC(=O)c1ccccc1O)c1ccccc1O [TCMDC-125868] | 2030 nM |  |  | 100000 nM | 1 (1: YES) | 63.28% | 34.36% |  | 460 nM | 100.00 µM |  |  | 
COc1ccc2nccc(NC(=O)C3CCC(NCc4cnc(SC)c([N+](=O)[O-])c4)CC3)c2n1.Cl (centres unmarked) [TCMDC-131238] | 676 nM |  |  | 14600 nM |  | 77.59% | 35.00% |  | 2410 nM |  | 14.62 µM | 0 (key: 1: YES; 0: NO) | 2410 nM
Br.CCCc1cc(C)ccc1OCCCON1C(N)=NC(N)=NC1(C)C [TCMDC-131320] | < 0.2 nM | 0.0017 µM | 0.0017 µM | 1.7 nM | 0 (0: NO) | 73.15% | 59.20% | 5110 nM | 5110 nM |  |  |  | 
C=CCc1cc(OC)ccc1OCCCOc1c(C)nc(N)nc1N.Cl [TCMDC-131358] | < 0.2 nM |  |  | 260 nM | 0 (0: NO) | 71.96% | 22.95% | 2360 nM | 2360 nM | 0.26 µM |  |  | 
CCN(CC)c1ccccc1CNC(=O)c1cc(Cl)c(N)cc1OC [TCMDC-131416] | < 0.2 nM |  |  | 41700 nM | 1 (1: YES) | 54.83% | 54.70% | 1320 nM | 1320 nM | 41.69 µM |  |  | 
CCOC(=O)c1c(-c2ccccc2)nc2c(sc3ccccc32)c1O [TCMDC-131540] | 3870 nM |  |  | 100000 nM | 1 (1: YES) | 101.19% | 85.53% | 1310 nM | 1310 nM | 100.00 µM |  |  | 
CC(ON1C(N)=NC(N)=NC1(C)C)c1ccccc1 (centres unmarked) [TCMDC-131596] | 14 nM | 0.0372 µM | 0.0372 µM | 37.2 nM | 0 (0: NO) | 78.80% | 47.07% |  | 5190 nM |  |  |  | 
Br.Cc1ccc(OCCCON2C(=N)N=C(N)NC2(C)C)cc1C [TCMDC-131650] | < 0.2 nM |  |  | 1 nM |  | 43.37% | 66.90% |  | 4960 nM |  | 0.001 µM | 0 (key: 1: YES; 0: NO) | 4960 nM
Br.CC1(C)N=C(N)N=C(N)N1OCCc1cccc2ccccc12 [TCMDC-131663] | 24 nM |  |  | 1 nM |  | 57.64% | 56.80% |  | 2710 nM |  | 0.001 µM | 0 (key: 1: YES; 0: NO) | 2710 nM
Br.CC1(C)NC(N)=NC(=N)N1OCCSc1ccccc1 [TCMDC-131670] | < 0.2 nM |  |  | 1 nM |  | 44.97% | 56.76% |  | 2860 nM |  | 0.001 µM | 0 (key: 1: YES; 0: NO) | 2860 nM
Br.CC1(C)NC(N)=NC(=N)N1OCCCOc1cc(Cl)ccc1Cl [TCMDC-131679] | < 0.2 nM |  |  | 1 nM |  | 77.33% | 60.56% |  | 3390 nM |  | 0.001 µM | 0 (key: 1: YES; 0: NO) | 3390 nM
Br.CC(CON1C(N)=NC(N)=NC1(C)C)c1ccc(Cl)cc1Cl (centres unmarked) [TCMDC-131687] | 39 nM | 0.001 µM | 0.001 µM | 1 nM | 0 (0: NO) | 63.61% | 60.22% | 2100 nM | 2100 nM |  |  |  | 
CC1(C)N=C(N)N=C(N)N1OCCCc1ccccc1.Cl [TCMDC-131689] | < 0.2 nM | 0.001 µM | 0.001 µM | 1 nM | 0 (0: NO) | 42.43% | 56.50% | 2540 nM | 2540 nM |  |  |  | 
Br.COc1ccc(CCCON2C(=N)N=C(N)NC2(C)C)cc1 [TCMDC-131693] | < 0.2 nM |  |  | 1 nM |  | 23.91% | 55.92% |  | 5900 nM |  | 0.001 µM | 0 (key: 1: YES; 0: NO) | 5900 nM
Br.CC1(C)NC(N)=NC(=N)N1OCCSc1ccc(Cl)c(Cl)c1 [TCMDC-131704] | < 0.2 nM |  |  | 1 nM |  | 51.68% | 39.02% |  | 8290 nM |  | 0.001 µM | 0 (key: 1: YES; 0: NO) | 8290 nM
Br.CCC(ON1C(N)=NC(N)=NC1(C)C)c1ccc(Cl)cc1 (centres unmarked) [TCMDC-131709] | 1.55 nM |  |  | 5.13 nM |  | 60.03% | 57.14% |  | 3260 nM |  | 0.00513 µM | 0 (key: 1: YES; 0: NO) | 3260 nM
Br.CC(CCON1C(N)=NC(N)=NC1(C)C)c1ccc(Cl)cc1 (centres unmarked) [TCMDC-131721] | < 0.2 nM |  |  | 1 nM |  | 71.36% | 33.21% |  | 9590 nM |  | 0.001 µM | 0 (key: 1: YES; 0: NO) | 9590 nM
Br.COc1ccc(CC(C)CON2C(N)=NC(N)=NC2(C)C)cc1 (centres unmarked) [TCMDC-131722] | < 0.2 nM |  |  | 1 nM |  | 50.32% | 49.29% |  | 4860 nM |  | 0.001 µM | 0 (key: 1: YES; 0: NO) | 4860 nM
CC1(C)NC(N)=NC(=N)N1OCOc1ccc(Cl)cc1.Cl [TCMDC-131734] | < 0.2 nM |  |  | 75.9 nM |  | 89.86% | 40.05% |  | 2620 nM |  | 0.0759 µM | 0 (key: 1: YES; 0: NO) | 2620 nM
Br.CC1(C)NC(N)=NC(=N)N1OCCCOc1ccccc1Cl [TCMDC-131739] | < 0.2 nM |  |  | 1 nM |  | 73.15% | 48.60% |  | 3130 nM |  | 0.001 µM | 0 (key: 1: YES; 0: NO) | 3130 nM
CCOC(=O)NC1=NC(=N)N(OCCCOc2cc(Cl)c(Cl)cc2Cl)C(C)(C)N1 [TCMDC-131741] | < 0.2 nM |  |  | 1 nM |  | 60.63% | 47.57% |  | 5080 nM |  | 0.001 µM | 0 (key: 1: YES; 0: NO) | 5080 nM
Br.CC(C)(C)c1ccccc1OCCCON1C(=N)N=C(N)NC1(C)C [TCMDC-131751] | < 0.2 nM |  |  | 1 nM |  | 62.16% | 60.88% |  | 3070 nM |  | 0.001 µM | 0 (key: 1: YES; 0: NO) | 3070 nM

Reference: paper PMC6753678, “Fueling Open Innovation for Malaria Transmission-Blocking Drugs: Hundreds of Molecules Targeting Early Parasite Mosquito Stages” (Frontiers in Microbiology, 2019)
